Reference: US6706663B2, “Herbicidal 3-heterocyclic substituted benzisothiazole and benzisoxazole compounds” (Wyeth, priority 2000, dated 2004)

Assays:
[1] = tested on: MOOVA (Monochoria vaginalis); assay: Flooded paddy, preemergence weed control; format: in vivo, Presl.; details: rated 3-4 weeks after treatment, 0-9 rating scale
Outline: (§1)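 Plants were established from seed or propagating organs in flooded silt loam, with the water surface held 1.5 to 3 cm above the soil for the entire experiment. Injury was assessed visually against a control and given a 0-9 score.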

ORYSAT (Rice, Tebonnet) [2] = assay: Postemergence herbicidal evaluation; format: in vivo, Oryza sativa, (L.) Tebonnet; details: postemergence
Outline: (§2)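 Visual 0–9 injury scores versus control plants, covering stand, vigour, malformation, size, chlorosis and general appearance, taken four to five weeks post-spray and averaged over replicate tests. Plants were sprayed at roughly two weeks old and held on greenhouse benches.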

[3] = tested on: ABUTH (Abutilon theophrasti); assay: Postemergence herbicidal evaluation; format: in vivo, Medic.; details: postemergence
Outline: as §2

[4] = tested on: GLXMAW (Soybean, Williams); assay: Preemergence herbicidal evaluation; format: in vivo, Glycine max, (L.) Merr. cv Williams; details: rated 4-5 weeks after treatment
[5] = tested on: GLXMAW (Soybean, Williams); assay: Postemergence herbicidal evaluation; format: in vivo, Glycine max, (L.) Merr. cv Williams; details: postemergence
Outline: as §2

ZEAMX (Corn, Field) = assay: Preemergence herbicidal evaluation; format: in vivo, Zea mays, L.; details: rated 4-5 weeks after treatment
ORYSAT (Rice, Tebonnet) [6] = assay: Flooded paddy, post-transplant rice tolerance; format: in vivo, Oryza sativa, (L.) Tebonnet; details: flooded paddy, post-transplant rice, rated 3-4 weeks after treatment, 0-9 rating scale
Outline: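 Two ten-day-old seedlings were transplanted into silt loam, flooded and held at 1.5 to 3 cm water above the soil before herbicide treatment. Pots stayed in the greenhouse at that water level. Injury was scored visually on a 0-9 scale versus untreated control.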

[7] = tested on: ABUTH (Abutilon theophrasti); assay: Preemergence herbicidal evaluation; format: in vivo, Medic.; details: rated 4-5 weeks after treatment
[8] = tested on: IPOHE (Ipomoea hederacea); assay: Postemergence herbicidal evaluation; format: in vivo, (L.) Jacq.; details: postemergence
Outline: as §2

[9] = tested on: AMBEL (Ambrosia artemisifolia); assay: Postemergence herbicidal evaluation; format: in vivo, L.; details: postemergence
Outline: as §2

[10] = tested on: CASOB (Cassia obtusifolia); assay: Postemergence herbicidal evaluation; format: in vivo, L.; details: postemergence
Outline: as §2

[11] = tested on: CHEAL (Chenopodium album); assay: Postemergence herbicidal evaluation; format: in vivo, L.; details: postemergence
Outline: as §2

[12] = tested on: IPOHE (Ipomoea hederacea); assay: Preemergence herbicidal evaluation; format: in vivo, (L.) Jacq.; details: rated 4-5 weeks after treatment
[13] = tested on: ECHCG (Echinochloa crus-galli); assay: Preemergence herbicidal evaluation; format: in vivo, (L.) Beau; details: rated 4-5 weeks after treatment
Outline: (§3)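 Rating 0–9, visual, vs control; 4–5 wk after spraying seeded cups with compound in aq. acetone; conventional greenhouse care.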

SETVI (Setaria viridis) = assay: Preemergence herbicidal evaluation; format: in vivo, (L.) Beau; details: rated 4-5 weeks after treatment
Outline: as §3

[14] = tested on: TRZAWR (Wheat, Winter, cv Riband); assay: Preemergence herbicidal evaluation; format: in vivo, Triticum aestivum; details: rated 4-5 weeks after treatment
Outline: as §3

CYPIR (Cyperus iria) = assay: Flooded paddy, preemergence weed control; format: in vivo; details: rated 3-4 weeks after treatment, 0-9 rating scale
Outline: as §1

[15] = tested on: AMBEL (Ambrosia artemisifolia); assay: Preemergence herbicidal evaluation; format: in vivo, L.; details: rated 4-5 weeks after treatment
Outline: as §3

[16] = tested on: CASOB (Cassia obtusifolia); assay: Preemergence herbicidal evaluation; format: in vivo, L.; details: rated 4-5 weeks after treatment
Outline: as §3

[17] = tested on: CHEAL (Chenopodium album); assay: Preemergence herbicidal evaluation; format: in vivo, L.; details: rated 4-5 weeks after treatment
Outline: as §3

## Cn1c(C(F)(F)F)cc(=O)n(-c2ccc3snc(C4OCC5(CO4)CO5)c3c2)c1=O (stereo not drawn) [Compound 70, 1-methyl-3-(3-spiro[m-dioxane-5,2′-oxiran]-2-yl-1,2-benzisothiazol-5-yl)-6-(trifluoromethyl)uracil]
[1]; rate 0.0080 kg/ha
  herbicidal rating, MOOVA: 0.0
[1]; rate 0.0320 kg/ha
  herbicidal rating, MOOVA: 0.0
[1]; rate 0.1250 kg/ha
  herbicidal rating, MOOVA: 0.0
ORYSAT (Rice, Tebonnet) [2]; rate 0.0320 kg/ha
  ORYSAT herbicidal rating: 5.0
ORYSAT (Rice, Tebonnet) [2]; rate 0.0620 kg/ha
  ORYSAT herbicidal rating: 6.0
[3]; rate 0.0320 kg/ha
  ABUTH herbicidal rating: 9.0
[3]; rate 0.0620 kg/ha
  ABUTH herbicidal rating: 9.0
[4]; Rate 0.0620 kg/ha
  Preemergence herbicidal rating GLXMAW: 3.0
[4]; Rate 0.1250 kg/ha
  Preemergence herbicidal rating GLXMAW: 9.0
[5]; rate 0.0320 kg/ha
  GLXMAW herbicidal rating: 7.0
[5]; rate 0.0620 kg/ha
  GLXMAW herbicidal rating: 8.5
ZEAMX (Corn, Field); Rate 0.0620 kg/ha
  Preemergence herbicidal rating ZEAMX: 2.0
ZEAMX (Corn, Field); Rate 0.1250 kg/ha
  Preemergence herbicidal rating ZEAMX: 9.0
ORYSAT (Rice, Tebonnet) [6]; rate 0.0080 kg/ha
  herbicidal rating, ORYSAT (rice tolerance): 0.0
ORYSAT (Rice, Tebonnet) [6]; rate 0.0320 kg/ha
  herbicidal rating, ORYSAT (rice tolerance): 0.0
ORYSAT (Rice, Tebonnet) [6]; rate 0.1250 kg/ha
  herbicidal rating, ORYSAT (rice tolerance): 0.0
[7]; Rate 0.0620 kg/ha
  Preemergence herbicidal rating ABUTH: 9.0
[7]; Rate 0.1250 kg/ha
  Preemergence herbicidal rating ABUTH: 9.0
[8]; rate 0.0320 kg/ha
  IPOHE herbicidal rating: 7.0
[8]; rate 0.0620 kg/ha
  IPOHE herbicidal rating: 9.0
[9]; rate 0.0320 kg/ha
  AMBEL herbicidal rating: 9.0
[9]; rate 0.0620 kg/ha
  AMBEL herbicidal rating: 9.0
[10]; rate 0.0320 kg/ha
  CASOB herbicidal rating: 5.0
[10]; rate 0.0620 kg/ha
  CASOB herbicidal rating: 5.0
[11]; rate 0.0320 kg/ha
  CHEAL herbicidal rating: 9.0
[11]; rate 0.0620 kg/ha
  CHEAL herbicidal rating: 9.0
[12]; Rate 0.0620 kg/ha
  Preemergence herbicidal rating IPOHE: 4.0
[12]; Rate 0.1250 kg/ha
  Preemergence herbicidal rating IPOHE: 7.0
[13]; Rate 0.0620 kg/ha
  Preemergence herbicidal rating ECHCG: 3.0
[13]; Rate 0.1250 kg/ha
  Preemergence herbicidal rating ECHCG: 7.0
SETVI (Setaria viridis); Rate 0.0620 kg/ha
  Preemergence herbicidal rating SETVI: 6.0
SETVI (Setaria viridis); Rate 0.1250 kg/ha
  Preemergence herbicidal rating SETVI: 9.0
[14]; Rate 0.0620 kg/ha
  Preemergence herbicidal rating TRZAWR: 3.0
[14]; Rate 0.1250 kg/ha
  Preemergence herbicidal rating TRZAWR: 7.0
CYPIR (Cyperus iria); rate 0.0080 kg/ha
  herbicidal rating, CYPIR: 0.0
CYPIR (Cyperus iria); rate 0.0320 kg/ha
  herbicidal rating, CYPIR: 0.0
CYPIR (Cyperus iria); rate 0.1250 kg/ha
  herbicidal rating, CYPIR: 0.0
[15]; Rate 0.0620 kg/ha
  Preemergence herbicidal rating AMBEL: 7.0
[15]; Rate 0.1250 kg/ha
  Preemergence herbicidal rating AMBEL: 9.0
[16]; Rate 0.0620 kg/ha
  Preemergence herbicidal rating CASOB: 2.0
[16]; Rate 0.1250 kg/ha
  Preemergence herbicidal rating CASOB: 2.0
[17]; Rate 0.0620 kg/ha
  Preemergence herbicidal rating CHEAL: 9.0
[17]; Rate 0.1250 kg/ha
  Preemergence herbicidal rating CHEAL: 9.0

## CC1=CC(C)(C)OC(c2nsc3ccc(-n4c(=O)cc(C(F)(F)F)n(C)c4=O)cc23)C1 (stereo not drawn) [Compound 65, 3-[3-(3,6-dihydro-4,6,6-trimethyl-2H-pyran-2-yl)-1,2-benzisothiazol-5-yl]-1-methyl-6-(trifluoromethyl)uracil]
[1]; rate 0.0080 kg/ha
  herbicidal rating, MOOVA: 0.0
[1]; rate 0.0320 kg/ha
  herbicidal rating, MOOVA: 0.0
[1]; rate 0.1250 kg/ha
  herbicidal rating, MOOVA: 3.0
ORYSAT (Rice, Tebonnet) [2]; rate 0.0320 kg/ha
  ORYSAT herbicidal rating: 4.0
ORYSAT (Rice, Tebonnet) [2]; rate 0.0620 kg/ha
  ORYSAT herbicidal rating: 4.5
[3]; rate 0.0320 kg/ha
  ABUTH herbicidal rating: 9.0
[3]; rate 0.0620 kg/ha
  ABUTH herbicidal rating: 9.0
[4]; Rate 0.0620 kg/ha
  Preemergence herbicidal rating GLXMAW: 2.0
[4]; Rate 0.1250 kg/ha
  Preemergence herbicidal rating GLXMAW: 3.0
[4]; Rate 0.2500 kg/ha
  Preemergence herbicidal rating GLXMAW: 6.0
[5]; rate 0.0320 kg/ha
  GLXMAW herbicidal rating: 5.5
[5]; rate 0.0620 kg/ha
  GLXMAW herbicidal rating: 7.0
ZEAMX (Corn, Field); Rate 0.0620 kg/ha
  Preemergence herbicidal rating ZEAMX: 7.0
ZEAMX (Corn, Field); Rate 0.1250 kg/ha
  Preemergence herbicidal rating ZEAMX: 8.0
ZEAMX (Corn, Field); Rate 0.2500 kg/ha
  Preemergence herbicidal rating ZEAMX: 9.0
ORYSAT (Rice, Tebonnet) [6]; rate 0.0080 kg/ha
  herbicidal rating, ORYSAT (rice tolerance): 0.0
ORYSAT (Rice, Tebonnet) [6]; rate 0.0320 kg/ha
  herbicidal rating, ORYSAT (rice tolerance): 0.0
ORYSAT (Rice, Tebonnet) [6]; rate 0.1250 kg/ha
  herbicidal rating, ORYSAT (rice tolerance): 0.0
[7]; Rate 0.0620 kg/ha
  Preemergence herbicidal rating ABUTH: 9.0
[7]; Rate 0.1250 kg/ha
  Preemergence herbicidal rating ABUTH: 9.0
[7]; Rate 0.2500 kg/ha
  Preemergence herbicidal rating ABUTH: 9.0
[8]; rate 0.0320 kg/ha
  IPOHE herbicidal rating: 9.0
[8]; rate 0.0620 kg/ha
  IPOHE herbicidal rating: 9.0
[9]; rate 0.0320 kg/ha
  AMBEL herbicidal rating: 9.0
[9]; rate 0.0620 kg/ha
  AMBEL herbicidal rating: 9.0
[10]; rate 0.0320 kg/ha
  CASOB herbicidal rating: 4.0
[10]; rate 0.0620 kg/ha
  CASOB herbicidal rating: 5.0
[11]; rate 0.0320 kg/ha
  CHEAL herbicidal rating: 7.0
[11]; rate 0.0620 kg/ha
  CHEAL herbicidal rating: 9.0
[12]; Rate 0.0620 kg/ha
  Preemergence herbicidal rating IPOHE: 0.0
[12]; Rate 0.1250 kg/ha
  Preemergence herbicidal rating IPOHE: 3.0
[12]; Rate 0.2500 kg/ha
  Preemergence herbicidal rating IPOHE: 9.0
[13]; Rate 0.0620 kg/ha
  Preemergence herbicidal rating ECHCG: 9.0
[13]; Rate 0.1250 kg/ha
  Preemergence herbicidal rating ECHCG: 9.0
[13]; Rate 0.2500 kg/ha
  Preemergence herbicidal rating ECHCG: 9.0
SETVI (Setaria viridis); Rate 0.0620 kg/ha
  Preemergence herbicidal rating SETVI: 9.0
SETVI (Setaria viridis); Rate 0.1250 kg/ha
  Preemergence herbicidal rating SETVI: 9.0
SETVI (Setaria viridis); Rate 0.2500 kg/ha
  Preemergence herbicidal rating SETVI: 9.0
[14]; Rate 0.0620 kg/ha
  Preemergence herbicidal rating TRZAWR: 5.0
[14]; Rate 0.1250 kg/ha
  Preemergence herbicidal rating TRZAWR: 7.0
[14]; Rate 0.2500 kg/ha
  Preemergence herbicidal rating TRZAWR: 9.0
CYPIR (Cyperus iria); rate 0.0080 kg/ha
  herbicidal rating, CYPIR: 0.0
CYPIR (Cyperus iria); rate 0.0320 kg/ha
  herbicidal rating, CYPIR: 0.0
CYPIR (Cyperus iria); rate 0.1250 kg/ha
  herbicidal rating, CYPIR: 9.0
[15]; Rate 0.0620 kg/ha
  Preemergence herbicidal rating AMBEL: 8.0
[15]; Rate 0.1250 kg/ha
  Preemergence herbicidal rating AMBEL: 9.0
[15]; Rate 0.2500 kg/ha
  Preemergence herbicidal rating AMBEL: 9.0
[16]; Rate 0.0620 kg/ha
  Preemergence herbicidal rating CASOB: 0.0
[16]; Rate 0.1250 kg/ha
  Preemergence herbicidal rating CASOB: 0.0
[16]; Rate 0.2500 kg/ha
  Preemergence herbicidal rating CASOB: 0.0
[17]; Rate 0.0620 kg/ha
  Preemergence herbicidal rating CHEAL: 9.0
[17]; Rate 0.1250 kg/ha
  Preemergence herbicidal rating CHEAL: 9.0
[17]; Rate 0.2500 kg/ha
  Preemergence herbicidal rating CHEAL: 9.0
